Reference: patent US12546707B2, “Validation of natural matrices for therapeutic use” (priority 2024, dated 2026)

Tested on: primary human chondrocytes (HC) exposed to IL1B
Experiment: In vitro cell assay representative of osteoarthritis (transcriptomics, IPA Z-score of biological functions)
Type: cell-based
Conditions: chondrocytes with IL1B 5 ng/ml, vs pathological state control
Protocol: Each time one of the batch solutions was added, fresh IL1B [5 ng/ml] was also added to the medium. The time schedule used for experimental setting is as follows: [table] At the end of described treatment periods, cells were washed with 100 μl PBS and lysed and collected in RLT buffer (Qiagen, 1053393) added with β-mercaptoethanol (Sigma, M3148) and DX reagent (Qiagen, 19088) for gene expression analysis experiments. Total RNA was extracted from cells lysates using an QIAsymphony RNA Kit (Qiagen,) with the QIAsymphony SP instrument (Qiagen). The quality and quantity of RNA was determined by A230, A260, A280 and A320 measurements on VarioskanTM LUX multimode microplate reader (Thermo ScientificTM). Integrity of RNA was checked using a 2100 expert_Eukaryote Total RNA Nano Kit (Agilent). Whole transcriptome expression profile was evaluated using a Human ClariomTM S Pico Assay HT (Applied Biosystems, ThermoFisher Scientific) on a GeneTitan MC Instrument (Applied Biosystems, ThermoFisher Scientific), following the manufacturer's instructions. […] Arrays were washed, stained and then scanned using the GeneTitan MC Instrument (Applied Biosystems, ThermoFisher Scientific) and CEL Intensity files were generated by Affymetrix GeneChip Command Console Software (AGCC, ThermoFisher Scientific). […] Ingenuity Pathways Analysis (IPA) (QIAGEN \Inc., https://www.qiagenbioinformatics.com/products/ingenuitypathway-analysis) was used, for each investigated batch to evaluate modulations of gene expression relevant for effects of interest. The patho-physiological features of state-of-the-art “Osteoarthritis condition” were considered with particular attention to the following areas involved: [table] This knowledge was used to interrogate IPA via the “IPA Bioprofiler” tool, using the following key words: osteoarthritis, arthropathy, formation of cartilage tissue, destruction of cartilage tissue, damage of cartilage, connective tissue disorder, inflammation of joint, immune cell trafficking, oxidative stress and hyaluronic acid. The use of “IPA Bioprofiler” allowed to identify clusters of expressed genes causally linked to each of the identified biological functions and the specific molecular pathway underpinning them. […] Modulation of expressed genes were shown in different intensities of blue (signifying down-modulation) or red (signifying up-modulation). The resulting expected calculated impact, based on the literature, on the related biofunctions was determined by “IPA Molecule Activity Predictor” tool (MAP) and resumed in a heatmap visualization. The colour and intensity thereof were transformed into numerical values.

[1] = hallmark Protection from anatomical damage

CC1(C)O[C@@H]2C[C@H]3[C@@H]4CCC5=CC(=O)C=C[C@]5(C)[C@@]4(F)[C@@H](O)C[C@]3(C)[C@]2(C(=O)CO)O1 [Triamcinolone acetonide, Triamcinolone Acetonide]
Z-score values: Skeletal and muscular system development and function → articular dysfunction → joint space → Formation of cartilage tissue (hallmark Induction of proliferation): −0.31
Z-score values: Organismal injury and abnormalities → joint inflammation and swelling, difficulty moving a joint → Osteoarthritis [1]: −0.15
Z-score values: Skeletal and muscular system function → difficulty moving a joint → Non-traumatic arthropathy [1]: −0.17
Z-score values: Inflammatory disease → inflammation and nociceptions → Inflammation of joint (hallmark Reduction of inflammation): −0.26
